According to a melting point compilation (Tetko et al.; mined from patent text by program, amines drawn as free bases though some values may be those of a salt):

melting point [°C]	Structure (SMILES)
105	CN(C)CCOc1ccc2ccc(N)nc2n1
195 to 196	Cn1cncc1COc1nn2c(-c3ccccc3)nnc2cc1-c1ccccc1
109 to 111	COc1cc(CCCCCCCC2OC(=O)NC2=O)ccc1OCc1nc(-c2ccccc2)oc1C (stereo unspecified)
120 to 122	Cc1ccc(Sc2cncc3sc(C(=O)NCC(O)CO)cc23)cc1 (stereo unspecified)
203 to 206	COC(=O)c1cn2c3c(c(N4CCCC4)c(F)cc3c1=O)CCN2C
161 to 162	COc1cccc(C2C(=O)CCc3ccccc32)c1 (stereo unspecified)
219 to 220	O=C1C=CC(O)(c2ccc(OCCCCl)cc2)O1 (stereo unspecified)
235 to 238	CCn1nc(-c2ccccc2)c(C(C)=O)c(Nc2cccc3nnc(C)cc23)c1=O
98 to 107	CCCn1cc(Cc2ccc(C(=O)O)cc2OC)c2cc(CC3CCN(C)C3=O)ccc21 (stereo unspecified)
166	COc1ccc(S(=O)(=O)N2Cc3cc4c(cc3CC2C(=O)NO)OCO4)cc1 (stereo unspecified)
120 to 122	COc1cc(C(F)(F)F)cc(OC)c1C(=O)CCl
182 to 183	CN(C)C=Nc1[nH]nc(N2CCOCC2)c1C#N
173	Nc1c(Cl)c(C(=O)O)nc(Cl)c1C(F)(F)F
144 to 154	CC(C)C(=O)C(=Cc1ccccc1)C(=O)Nc1ccccc1
104 to 105	Cc1c(F)c(F)cc(F)c1C(=O)O
172	COc1cc2c(cc1Br)Cc1cc(Br)ccc1-2
254 to 256	O=C(CCc1cnn(-c2ccccc2)c1-c1ccccc1)Nc1ccc(C(=O)O)cc1
231 to 238	CC(=O)Nc1ccc(C=[N+]([O-])Cc2ccccc2)cc1
115 to 135	COc1cc(/C=C/C(=O)NCCN2CCC(c3c[nH]c4ccccc34)CC2)ccc1O
170 to 172	O=C(O)Cn1c(=O)c2ccccc2n(CCCN2CCC(OC(c3ccccc3)c3ccccc3)CC2)c1=O
134 to 137	O=Cc1cc2ccccc2[nH]1
65.5 to 67.5	C[C@@H]1COC2(CCCC2)N1C(=O)c1ccccc1
137 to 138	CC1(C)C(C=C(Cl)Cl)C1(C)C(=O)O (stereo unspecified)
64 to 67	CCCC(=O)NCCC1=CCc2ccc(OC)cc21
217 to 218	O=C(O)CNC(=O)Nc1cccc([N+](=O)[O-])c1

melting point [°C]	Structure (SMILES)
106	COc1ccc(-n2cncc2-c2ccccc2)cc1
247 to 248	Brc1ccc(-c2ccc(-c3ccc(Br)s3)c3nsnc23)s1
142 to 145	Cc1cc2oc(=O)c3c(c2cc1C)CCN(CCN1CCCCC1)C3
> 300	CCCCn1c(=O)c2nc(-c3ccc(/C=C/C(=O)O)cc3)[nH]c2n(C)c1=O
155 to 156	Cc1c(C)c([N+](=O)[O-])c(C)c2c1OC(C)(C)C2c1ccccc1 (stereo unspecified)
119	CCCCOc1cc(/C=C(\OCC)C(=O)O)ccc1OCCc1ccc(OCC)c(F)c1
171	COc1ccc2ccccc2c1OP(=O)(O)O
175	CCCOc1ncc(NCC(=O)OC)cc1-c1nc2c(CCC)nn(C)c2c(=O)[nH]1
80 to 83	O=c1[nH]c(=O)n(C2OC(CO)C(O)C2F)cc1C=CBr (stereo unspecified)
45 to 47	CCOC(=O)CCCCn1cnc2ccncc21
162 to 165	CC(C)c1ccc2c(c1)c(Sc1ccccc1)c(CC(C)(C)C(=O)O)n2Cc1ccc(Cl)cc1
63 to 65	CC(=NO)c1cccc(C(F)(F)F)c1
208 to 209	O=C1Cc2c(ccc3ccc(C(O)C(F)(F)F)cc23)O1 (stereo unspecified)
157 to 158	N#CC(C#N)=NC1=C(N2CCOCC2)CCC1
142 to 143	Cc1c(C(=O)O)cccc1-n1c(C)ccc1C
173 to 174	Cc1oc(-c2ccccc2)nc1CCC(=O)c1ccc(CCC2OC(=O)NC2=O)cc1 (stereo unspecified)
181 to 182	O=C(NCCO)c1cccc(-c2ccc3c(n2)C(Oc2ccc(Cl)cc2Cl)CC3)c1 (stereo unspecified)
164 to 167	CC(C)(C)C(NC(=O)c1ccc(Cl)cc1)NC(=S)Nc1cccnc1 (stereo unspecified)
180 to 182	NC(=O)C1Cc2c([nH]c3ccccc23)C(c2ccccc2)N1C(=O)CCl (stereo unspecified)
150 to 151	O=C1CCC(O)(c2nc3ccccc3s2)C(Sc2ccccc2)(Sc2ccccc2)C1 (stereo unspecified)
45.5	COC(CC#N)=NC#N
283 to 284	O=C(O)CNc1nccc(-c2nc(=O)c3ccccc3s2)n1
177 to 178	COc1cc(C(=O)Nc2cccc3c2CN(C)CC3)cc(OC)c1OC
85 to 86	O=[N+]([O-])c1ccc2c(c1)CN(Cc1ccccc1)CC2
193 to 196	O=C(Nc1ccc2cc(CN3CCC(CCO)CC3)cnc2c1)c1ccc(-c2ccc(F)cc2)cc1

melting point [°C]	Structure (SMILES)
182	CCOC(=O)C(=CC=C(O)C(=O)O)Sc1ccc2ccccc2c1
134 to 137	CCCc1nc2c(N)nc3cc(Br)ccc3c2n1CC1CCN(C(=O)OC(C)(C)C)CC1
119 to 120	COc1nc(OC)c(C(C)C)c(C(=O)c2cc(C)cc(Cl)c2)n1
140 to 141	CNC(=O)c1cc(Oc2ccc(N)c(F)c2)ccn1
71.5 to 73	CCOC(=O)c1cc(OCc2ccccc2)ccc1O
84 to 86	Fc1ccccc1OCc1ccc2ccccc2n1
186 to 188	COC(=O)[C@H](Cc1c[nH]cn1)NC(=O)[C@H](CCC(N)=O)NC(=O)OCc1ccccc1
65	CC(C)(SN=O)C1COC(=O)N1 (stereo unspecified)
158 to 159	Cc1noc2cc(F)c(-n3c(=O)cc(C(F)(F)F)n(C)c3=O)cc12
100 to 102	CCOC(=O)C[C@H](NC(=O)/C=C/Sc1ccccc1)C(=O)OCC
76 to 81	COC(=O)c1cc(S(C)(=O)=O)ccc1OCC(C)C
95 to 96	COC(=O)NCCOc1cc(-c2ccccc2)on1
117 to 118	CCCCC(Cc1ccc(OCCNC(=O)c2ccc(OC(C)C)nc2)cc1)C(=O)O (stereo unspecified)
192 to 196	O=C(O)C1(Cn2cnnn2)CCCC1
83 to 85	CCOC(=O)C(=Nc1ccc(OC)cc1)c1cccn1C
225 to 227	S=C1CC2Cc3ccc(Cl)cc3C2N1 (stereo unspecified)
129 to 133	CCOC(=O)c1ncc2[nH]c3cccc(COC(C)=O)c3c2c1COC
235 to 236	Cc1cn(-c2cc(NC(=O)c3ccc(C)c(Nc4nccc(-c5cccnc5)n4)c3)cc(C(F)(F)F)c2)cn1
273 to 275	COc1ccc2ncc(NC(=O)C=Cc3cc(OC)c(OC(C)=O)c(OC)c3)c(-c3ccccc3)c2c1
279 to 280	CC1CCc2c(N3CCOCC3)c(F)cc3c(=O)c(C(=O)O)cn1c23 (stereo unspecified)
124 to 125	COc1ccc(C2(c3ccc(OC)cc3)C(c3ccccc3)C2(Cl)Cl)cc1 (stereo unspecified)
82 to 84	CN1C(=O)N(C)S(=O)(=O)N(c2ccc(Cl)cc2)C1=O
203 to 204	CC(=O)NC[C@H]1CN(c2ccc(N3CCC(=O)N(C)CC3)c(F)c2)C(=O)O1

Structure (SMILES)	melting point [°C]
N#Cc1nn(-c2c(Cl)cc(C(F)(F)F)cc2Cl)c(N)c1-c1ccc(Br)cc1	242 to 244
CCCCOC(=O)N(C)c1cccc(-c2ccnc3c(C#N)cnn23)c1	96 to 97
OC1(c2ccc(-c3ccc(F)cc3)cc2)CN2CCC1CC2 (stereo unspecified)	172 to 173
